In patent US5561042A, “Diamine platinum naphthalimide complexes as antitumor agents” (Cancer Therapy and Research Center, priority 1995, dated 1996):
Entries after “also recorded” stand apart in the source; their conditions may differ.

What was measured:
[1] = molecular target: Lambda DNA; assay: Ethidium bromide displacement, lambda DNA; format: binding; settings: 1 μM DNA, 1.26 μM ethidium bromide, pH 7.0, read-out: FI50, Lambda DNA
Description: (§1) A 10× Binding solution was prepared by combining 0.93 ml of an aqueous NaCl solution (5M), 2.0 ml of an aqueous Tris HCl (500 mM) solution, 0.1 ml of an EDTA solution (500 mM) and 46.97 ml of water. The resultant solution was 93 mM in NaCl, 20 mM in Tris HCl, and 1 mM in EDTA. Stock DNA solution were prepared as follows: Poly (dG·dC)-(dG·dC) (ε254=8.4/mM; 27-7910-02), poly(dA·dT)-(dA·dT) (ε262=6.6/mM; 27-7870-02), and lambda DNA (ε260-7.0/mM; 27-4111-01) were purchased from Pharmacia. Solutions were prepared by resuspending either poly (dG·dC)-(dG·dC) or poly(dA·dT)-(dA·dT)in 1 ml of 10× DNA Binding Solution. Lambda DNA is already in solution as purchased.
(§2) Poly (dG·dC)-(dG·dC), poly(dA·dt)-(dA·dt) and lambda DNA concentrations were determined as follows: 980 μl of 10× DNA Binding Solution was pipetted into a 1 ml cuvette. A blank was run on the UV spectrophotometer. 20 μl of the DNA stock of unknown concentration was then added into the cuvette. The sample was then scanned between 210 nm to 500 nm and the absorbance recorded at 254 nm for poly(dG·dC)-(dG·dC), at 262 nm for poly(dA·dT)-(dA·dT) and at 260 nm for lambda DNA. The solution was transferred to a clean tube. This procedure was followed for three different solutions with the absorbance taken as the average of the three. The concentration of poly(dG·dC)-(dG·dC) stock was calculated to be A254 /8.4×1000 (in μM). The concentration of poly(dA·dT)-(dA·dT) stock was calculated to be A262 /6.6×1000 (in μM). The concentration of lambda DNA stock was calculated to be A260 /7.0×1000 (in μM).
(§3) The binding of the bis-naphthalimides to DNA and to synthetic polynucleotide duplexes was determined by an ethidium bromide displacement assay that measures the reduction of fluorescence when ethidium bromide is displaced from DNA (Baguley, 1981). The fluorescence intensity of a 3 ml solution containing 9.3 mM NaCl, 2 mM Tris-HCl (pH 7.0), 100 μM EDTA, 1 μM DNA (in nucleotides) and 1.26 μM ethidium bromide in a quartz cuvette was measured at the excitation (546 nm) and emission (600 nm) wavelengths on a Shimadzu RF5000U spectrofluorometer. Graded concentrations of agent were then added and the fluorescence intensity was measured. The concentration of compound required to reduce the fluorescence intensity by 50% of that of control (FI50) was determined. Therefore, the lower the FI50 the stronger the binding affinity a particular compound has for DNA.
(§4) The ability of bis-naphthalimides of the present invention and the known anti-cancer agents compound 22 and DMP840, (R,R)-2,2'[1,2-ethanediylbis[imino(1-methyl-2,1-ethanediyl)]]-bis[5-nitro- 1H benz[de]isoquinoline-1,3-(2H)dione]dimethanesulfonate, to bind to DNA and to synthetic oligonucleotide duplexes was measured using an ethidium bromide displacement assay. Ethidium bromide, a known DNA intercalator, has no fluorescence in the absence of DNA; however, fluorescence intensity increases when ethidium bromide binds to DNA. The ethidium bromide displacement assay measures the decrease in fluorescence intensity caused by DNA-bound ethidium bromide with DNA interacting agents.

[2] = system: poly (dG.dC) - poly (dG.dC); assay: Ethidium bromide displacement, poly(dG.dC)-poly(dG.dC); format: binding; settings: for Ratio (AT/GC): FI50 poly(dA.dT)-poly(dA.dT) / FI50 poly(dG.dC)-poly(dG.dC); for IC50: ethidium bromide displacement, 1 μM DNA, 1.26 μM ethidium bromide, pH 7.0, read-out: FI50, poly (dG.dC) - poly (dG.dC)
Description: as §1, §2, §3, §4

[3] = molecular target: poly (dA.dT) - poly (dA.dT); assay: Ethidium bromide displacement, poly(dA.dT)-poly(dA.dT); format: binding; settings: 1 μM DNA, 1.26 μM ethidium bromide, pH 7.0, read-out: FI50, poly (dA.dT) - poly (dA.dT)
Description: as §1, §2, §3, §4

[4] = system: P388 murine leukemic cell line; assay: In vitro growth inhibition (MTT), P388 leukemia; format: cell-based; settings: 3 days
Description: (§5) P388 murine leukemic cell line was obtained from the DCT Tumor Repository (National Cancer Institute, Frederick Cancer Research and Development, Frederick Md. 21702). HT29 Human Colon Carcinoma cell line was obtained from the American Type Culture Collection (12301 Parklawn Drive, Rockville, Md. 20852). B16 Melanoma cell line was obtained from DuPont Merck Pharmaceutical Company (Glenolden, Pa. 19036). MCF-7 Human Breast Carcinoma cell line was a gift from Dr. K. Osborne (Department of Medicine, The University of Texas Health Science Center at San Antonio, San Antonio, Tex. 78284). All cell lines were incubated at 37° C. in a humidified atmosphere of 5% CO2 -95% air. Murine B16 melanoma cell line was grown in RPMI 1640 medium supplemented with 10% heat-inactivated fetal bovine serum, 2 mM L-glutamine, 50 units/ml penicillin, 50 μg/ml streptomycin, 25 μg/ml gentamycin, 0.75% sodium bicarbonate, 10 mM HEPES buffer (pH 7.4), and 0.06 mg/ml AntiPPLO. Murine P388 leukemic and the human HT-29 colon adenocarcinoma cell lines were maintained in RPMI 1640 medium supplemented with 10% heat-inactivated fetal bovine serum. MCF-7M human breast adenocarcinoma was maintained in IMEM medium supplemented with 5% non heat-inactivated fetal bovine serum and 1 nM insulin.
(§6) Exponentially growing cells (1-2×10^3 cells, unless specified otherwise) in 0.1 ml medium were seeded on day 0 in a 96-well microtiter plate. On day 1, 0.1 ml aliquots of medium containing graded concentrations of test compounds were added in duplicate to the cell plates. After incubation at 37° C. in a humidified incubator for 3 days (P388, B16) or 6 days (HT-29, MCF-7M), the plates were centrifuged briefly and 100 μl of the growth medium was removed. Cell cultures were incubated with 50 μl of 3-(4,5-dimethylthiazol-2-yl)-2,5-diphenyl-tetrazolium bromide [MTT, 1 mg/ml in Dulbecco's phosphate buffered saline (PBS)] for 4 hr at 37° C. The resulting purple formazan precipitate was solubilized with 200 μl of 0.04N HCl in isopropyl alcohol. Absorbance was monitored in a BioRad Model 3550 Microplate Reader at a test wavelength of 570 nm and a reference wavelength of 630 nm. The absorbance was transferred to a PC 486 computer. The IC50 values were determined by a computer program (EZ-ED50) that fit all of the data to the following four-parameterlogistic equation:
(§7) Y=((Am -Ao)/(1+(X/IC50)^n))+Ao
(§8) where Am is the absorbance of control cells, Ao is the absorbance of cells in the presence of highest agent concentration, Y is the observed absorbance, X is the agent concentration, IC50 is the concentration of agent that inhibits the cell growth by 50% of control cells (based on the absorbance) and n is the slope of the curve.

[5] = system: Murine B16 melanoma cell line; assay: In vitro growth inhibition (MTT), B16 melanoma; format: cell-based; settings: MTT, 3 days
Description: as §5, §6, §7, §8

[6] = system: MCF-7 Human Breast Carcinoma cell line; assay: In vitro growth inhibition (MTT), MCF-7 breast carcinoma; format: cell-based; settings: 6 days
Description: as §5, §6, §7, §8

[7] = system: HT29 Human Colon Carcinoma cell line; assay: In vitro growth inhibition (MTT), HT29 colon carcinoma; format: cell-based; settings: 6 days
Description: as §5, §6, §7, §8

[8] = system: B16 murine melanoma; assay: B16 melanoma in vivo, survival of B6D2F1 mice; settings: for T/C: mean survival treated/control
Description: B6D2F1 mice received i.p. inocula of B16 murine melanoma brei prepared from B16 tumors growing subcutaneously in mice (day 0). On day 1, rumored mice were treated with drugs or vehicle control; the route of drug administration and schedule were selected as appropriate for the study in question. If dosing information for agents was not available, the maximum tolerated dose (MTD) was determined in initial dose finding experiments in non-tumored mice. In a typical experiment, drugs were given at their MTD and 1/2 MTD doses i.p. on a daily×5 schedule.
The mean survival times of all groups were calculated, and results were expressed as mean survival of treated mice/mean survival of control mice (T/C)×100%. A T/C value of 150 means that the mice in the treated group lived 50% longer than those of the control group; this is sometimes referred to as the increase in life space, or ILS value.
Mice that survived for 60 days were considered long term survivors, or cures, in the B16 model. The universally accepted cut-off for activity in this model, which has been used for years by the National Cancer Institute, is T/C=125.
Statistics were performed on the data using primarily the log rank p-value test.

[9] = system: DNA; assay: Ethidium bromide displacement, DNA binding in general
Description: as §3
as §4, with “The ethidium bromide displacement assay measures the decrease in fluorescence intensity caused by DNA-bound ethidium bromide with DNA interacting agents.” left out

| Compound | IC50 [1] [nM] | Ratio (AT/GC) [2] | IC50 [2] [nM] | IC50 [3] [nM] | IC50 [5] [nM] | IC50 [6] [nM] | IC50 [7] [nM] | IC50 ([4]; Mus musculus, P388, 72 h) [nM] | other results |
| --- | --- | --- | --- | --- | --- | --- | --- | --- | --- |
| O=C1c2cccc3cc([N+](=O)[O-])cc(c23)C(=O)N1CCNCCS(=O)(=O)CCN1C(=O)c2cccc3cc([N+](=O)[O-])cc(c23)C1=O [Compound 15, 5-[2-(3-Nitronaphthalene-1,8-dicarboximido)ethylamino]-1-(3-nitronaphthalene-1,8-dicarboximido)-3-sulfonylpentane hydromethanesulfonate] | 1030 | 144.4 | 118 | 17100 | 34 | 36 | 22 | – | IC50 [4]: 29.9 nM |
| O=C1c2cccc3cc([N+](=O)[O-])cc(c23)C(=O)N1CCNCC[S+]([O-])CCN1C(=O)c2cccc3cc([N+](=O)[O-])cc(c23)C1=O (stereo not shown) [Compound 13] | 180 | 212.6 | 18 | 3850 | 1.6 | < 0.1 | 0.2 | – | IC50 [4]: < 5 nM |
| O=C1c2cccc3cc([N+](=O)[O-])cc(c23)C(=O)N1CCNCCNCCN1C(=O)c2cccc3cc([N+](=O)[O-])cc(c23)C1=O [Compound 22, 2,2'[1,2-ethanediylbis[imino(2,1-ethanediyl)]]-bis[5-nitro-1H-benz[de]isoquinoline-1,3-(2H)-dione]dimethanesulfonate] | – | 16.5 | – | – | – | – | – | – | 60-Day Survivors ([8]; 2.5 mg/kg, q.d. × 5, i.p.): 0; Wt. Ch. (%) (Day 7) ([8]; 2.5 mg/kg, q.d. × 5, i.p.): -0.17%; T/C ([8]; 2.5 mg/kg, q.d. × 5, i.p.): 141% |
| O=C1c2cccc3cc([N+](=O)[O-])cc(c23)C(=O)N1CCNCCNCCN1C(=O)c2cccc3cc([N+](=O)[O-])cc(c23)C1=O [Compound 23, 2,2'[1,2-ethanediylbis[imino(2,1-ethanediyl)]]-bis[5-nitro-1H-benz[de]isoquinoline-1,3-(2H)-dione]] | – | – | – | – | – | – | – | – | 60-Day Survivors ([8]; 2.5 mg/kg, q.d. × 5, i.p.): 0; Wt. Ch. (%) (Day 7) ([8]; 2.5 mg/kg, q.d. × 5, i.p.): 0.95%; T/C ([8]; 2.5 mg/kg, q.d. × 5, i.p.): 162% |
| O=C1c2cccc3cc([N+](=O)[O-])cc(c23)C(=O)N1CCNCC[S+]([O-])CCN1C(=O)c2cccc3cc([N+](=O)[O-])cc(c23)C1=O (stereo not shown) [Compound 12] | 169 | 51.06 | 125 | 6380 | 6.3 | 1.6 | 1.7 | 9 | – |
| O=C1c2cccc3cc([N+](=O)[O-])cc(c23)C(=O)N1CCNCCSCCN1C(=O)c2cccc3cc([N+](=O)[O-])cc(c23)C1=O [Compound 10, 5-[2-(3-Nitronaphthalene-1,8-dicarboximido)ethylamino]-1-(3-nitronaphthalene-1,8-dicarboximido)-3-thiopentane] | 7370 | 22.3 | 770 | 17200 | – | – | – | 56.5 | IC50 ([5]; Mus musculus, B16, 72 h): 33 nM; IC50 ([6]; Homo sapiens, MCF7, 144 h): 9 nM |
| O=C1c2cccc3cc([N+](=O)[O-])cc(c23)C(=O)N1CCNCCS(=O)(=O)CCN1C(=O)c2cccc3cc([N+](=O)[O-])cc(c23)C1=O [Compound 14] | 24200 | 64.38 | 672 | 43300 | 86 | 132 | – | 27 | IC50 ([7]; Homo sapiens, HT-29, 144 h): 44 nM |
| O=C1c2cccc3cc([N+](=O)[O-])cc(c23)C(=O)N1CCNCCOCCN1C(=O)c2cccc3cc([N+](=O)[O-])cc(c23)C1=O [Compound 6] | – | – | – | – | – | – | – | – | DNA binding (in words) [9]: dose-dependent decrease in fluorescence intensity; 60-Day Survivors ([8]; 15 mg/kg, q.d. × 5, i.p.): 0; Wt. Ch. (%) (Day 7) ([8]; 15 mg/kg, q.d. × 5, i.p.): -7.4%; T/C ([8]; 15 mg/kg, q.d. × 5, i.p.): 210%; 60-Day Survivors ([8]; 30 mg/kg, q.d. × 5, i.p.): 0; Wt. Ch. (%) (Day 7) ([8]; 30 mg/kg, q.d. × 5, i.p.): -16.4%; T/C ([8]; 30 mg/kg, q.d. × 5, i.p.): 233%; activity against B16 melanoma in vivo (in words) ([8]; mouse, in vivo): potent activity against B16 melanoma in vivo; also recorded: remarkable activity; also recorded: more active in this model than DMP840, compounds 22 and 23, and cytoxan; also recorded: more effective against B16 melanoma compared with DMP840 |
| O=P1(N(CCCl)CCCl)NCCCO1 (stereo not shown) [Cytoxan] | – | – | – | – | – | – | – | – | 60-Day Survivors ([8]; 150 mg/kg, q.d. × 5, i.p.): 0; Wt. Ch. (%) (Day 7) ([8]; 150 mg/kg, q.d. × 5, i.p.): -12.2%; T/C ([8]; 150 mg/kg, q.d. × 5, i.p.): 175%; 60-Day Survivors ([8]; 300 mg/kg, q.d. × 1, i.p.): 0; Wt. Ch. (%) (Day 7) ([8]; 300 mg/kg, q.d. × 1, i.p.): -6.6%; T/C ([8]; 300 mg/kg, q.d. × 1, i.p.): 197%; highest effective dose ([8]; mouse, in vivo): 300 mg/kg |
